Assay results as given in the supplement of paper PMC10307832.

What was measured:
Test in all cases: relative viability (nuclei count vs DMSO), 5 days (fraction); higher = more cells survive
CAL-12T = system: CAL-12T
Method in brief: (§1)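 Lung cancer cell lines, seeded in 1536-well plates, were treated the following day by pin tool with a single drug or with five library-drug doses (not always all listed) in √10 steps on top of a fixed anchor-drug dose. Cells were fixed and nuclei stained in one step after 5 days, and nuclei were counted. Relative viability is the nuclei count for treated wells divided by that for vehicle wells, reported as medians of duplicate plates.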

COR-L 105 = system: COR-L 105
Method in brief: as §1

NCI-H1915 = system: NCI-H1915
Method in brief: as §1

HCC-827 = system: HCC-827
Method in brief: as §1

HCC-366 = system: HCC-366
Method in brief: as §1

NCI-H1755 = system: NCI-H1755
Method in brief: as §1

NCI-H1437 = system: NCI-H1437
Method in brief: as §1

NCI-H460 = system: NCI-H460
Method in brief: as §1

HOP-62 = system: HOP-62
Method in brief: as §1

NCI-H23 = system: NCI-H23
Method in brief: as §1

SK-LU-1 = system: SK-LU-1
Method in brief: as §1

NCI-H2009 = system: NCI-H2009
Method in brief: as §1

NCI-H1355 = system: NCI-H1355
Method in brief: as §1

A-427 = system: A-427
Method in brief: as §1

NCI-H2228 = system: NCI-H2228
Method in brief: as §1

NCI-H1792 = system: NCI-H1792
Method in brief: as §1

NCI-H727 = system: NCI-H727
Method in brief: as §1

EMC-BAC-2 = system: EMC-BAC-2
Method in brief: as §1

HARA = system: HARA
Method in brief: as §1

NCI-H1975 = system: NCI-H1975
Method in brief: as §1

NCI-H1395 = system: NCI-H1395
Method in brief: as §1

SW 1573 = system: SW 1573
Method in brief: as §1

Work on `Clc1ccc(Nc2nnc(Cc3ccncc3)c3ccccc23)cc1` [Vatalanib] + CC1(C)CCC(c2ccc(Cl)cc2)=C(CN2CCN(c3ccc(C(=O)NS(=O)(=O)c4ccc(N[C@H](CCN5CCOCC5)CSc5ccccc5)c(S(=O)(=O)C(F)(F)F)c4)cc3)CC2)C1 [Navitoclax] (partner 0.5 µM) yielded a relative viability (CAL-12T; first compound 0.04 µM) of 1.17, a relative viability (CAL-12T; first compound 0.1265 µM) of 1.2 and a relative viability (CAL-12T; first compound 0.4 µM) of 1.28. It also gave a relative viability (CAL-12T; first compound 1.265 µM) of 1.15, a relative viability (CAL-12T; first compound 4 µM) of 1.31 and a relative viability (COR-L 105; first compound 0.04 µM) of 1.47. For the same compound, the relative viability (COR-L 105; first compound 0.1265 µM) was 0.928, the relative viability (COR-L 105; first compound 0.4 µM) was 0.692 and the relative viability (COR-L 105; first compound 1.265 µM) was 0.766. It also gave a relative viability (COR-L 105; first compound 4 µM) of 0.715, a relative viability (NCI-H1915; first compound 0.04 µM) of 0.805 and a relative viability (NCI-H1915; first compound 0.1265 µM) of 0.796. For the same compound, the relative viability (NCI-H1915; first compound 0.4 µM) was 0.771, the relative viability (NCI-H1915; first compound 1.265 µM) was 0.794 and the relative viability (NCI-H1915; first compound 4 µM) was 0.779. The relative viability (HCC-827; first compound 0.04 µM) was 1.01, the relative viability (HCC-827; first compound 0.1265 µM) was 0.982 and the relative viability (HCC-827; first compound 0.4 µM) was 1.06. For the same compound, the relative viability (HCC-827; first compound 1.265 µM) was 0.994, the relative viability (HCC-827; first compound 4 µM) was 0.97 and the relative viability (HCC-366; first compound 0.04 µM) was 1.09. For the same compound, the relative viability (HCC-366; first compound 0.1265 µM) was 0.816, the relative viability (HCC-366; first compound 0.4 µM) was 1.25 and the relative viability (HCC-366; first compound 1.265 µM) was 1.03. It also gave a relative viability (HCC-366; first compound 4 µM) of 0.991, a relative viability (NCI-H1755; first compound 0.04 µM) of 1.06 and a relative viability (NCI-H1755; first compound 0.1265 µM) of 0.972. The relative viability (NCI-H1755; first compound 0.4 µM) was 1.03, the relative viability (NCI-H1755; first compound 1.265 µM) was 0.821 and the relative viability (NCI-H1755; first compound 4 µM) was 0.993. The relative viability (NCI-H1437; first compound 0.04 µM) was 1.09, the relative viability (NCI-H1437; first compound 0.1265 µM) was 1.09 and the relative viability (NCI-H1437; first compound 0.4 µM) was 1.12. For the same compound, the relative viability (NCI-H1437; first compound 1.265 µM) was 1.13, the relative viability (NCI-H1437; first compound 4 µM) was 1.15 and the relative viability (NCI-H460; first compound 0.04 µM) was 1.17. For the same compound, the relative viability (NCI-H460; first compound 0.1265 µM) was 1.09, the relative viability (NCI-H460; first compound 0.4 µM) was 1.11 and the relative viability (NCI-H460; first compound 1.265 µM) was 1.04. For the same compound, the relative viability (NCI-H460; first compound 4 µM) was 1.11, the relative viability (HOP-62; first compound 0.04 µM) was 1.05 and the relative viability (HOP-62; first compound 0.1265 µM) was 0.958. The relative viability (HOP-62; first compound 0.4 µM) was 1.07, the relative viability (HOP-62; first compound 1.265 µM) was 0.949 and the relative viability (HOP-62; first compound 4 µM) was 1.07. For the same compound, the relative viability (NCI-H23; first compound 0.04 µM) was 0.772, the relative viability (NCI-H23; first compound 0.1265 µM) was 0.699 and the relative viability (NCI-H23; first compound 0.4 µM) was 0.841. It also gave a relative viability (NCI-H23; first compound 1.265 µM) of 0.745, a relative viability (NCI-H23; first compound 4 µM) of 0.825 and a relative viability (SK-LU-1; first compound 0.04 µM) of 0.755. It also gave a relative viability (SK-LU-1; first compound 0.1265 µM) of 0.594, a relative viability (SK-LU-1; first compound 0.4 µM) of 0.742 and a relative viability (SK-LU-1; first compound 1.265 µM) of 0.832. The relative viability (SK-LU-1; first compound 4 µM) was 0.82, the relative viability (NCI-H2009; first compound 0.04 µM) was 1.18 and the relative viability (NCI-H2009; first compound 0.1265 µM) was 1.09. It also gave a relative viability (NCI-H2009; first compound 0.4 µM) of 1.24, a relative viability (NCI-H2009; first compound 1.265 µM) of 1.12 and a relative viability (NCI-H2009; first compound 4 µM) of 1.13. The relative viability (NCI-H1355; first compound 0.04 µM) was 0.962, the relative viability (NCI-H1355; first compound 0.1265 µM) was 0.927 and the relative viability (NCI-H1355; first compound 0.4 µM) was 1.01. It also gave a relative viability (NCI-H1355; first compound 1.265 µM) of 0.875, a relative viability (NCI-H1355; first compound 4 µM) of 0.917 and a relative viability (A-427; first compound 0.04 µM) of 0.998. For the same compound, the relative viability (A-427; first compound 0.1265 µM) was 0.92, the relative viability (A-427; first compound 0.4 µM) was 0.867 and the relative viability (A-427; first compound 1.265 µM) was 0.794. The relative viability (A-427; first compound 4 µM) was 0.98, the relative viability (NCI-H2228; first compound 0.04 µM) was 0.845 and the relative viability (NCI-H2228; first compound 0.1265 µM) was 0.92. It also gave a relative viability (NCI-H2228; first compound 0.4 µM) of 1.1, a relative viability (NCI-H2228; first compound 1.265 µM) of 0.755 and a relative viability (NCI-H2228; first compound 4 µM) of 0.83. The relative viability (NCI-H1792; first compound 0.04 µM) was 0.648, the relative viability (NCI-H1792; first compound 0.1265 µM) was 0.611 and the relative viability (NCI-H1792; first compound 0.4 µM) was 0.688. For the same compound, the relative viability (NCI-H1792; first compound 1.265 µM) was 0.678, the relative viability (NCI-H1792; first compound 4 µM) was 0.624 and the relative viability (NCI-H727; first compound 0.04 µM) was 0.428. It also gave a relative viability (NCI-H727; first compound 0.1265 µM) of 0.403, a relative viability (NCI-H727; first compound 0.4 µM) of 0.516 and a relative viability (NCI-H727; first compound 1.265 µM) of 0.407. For the same compound, the relative viability (NCI-H727; first compound 4 µM) was 0.46, the relative viability (EMC-BAC-2; first compound 0.04 µM) was 1.18 and the relative viability (EMC-BAC-2; first compound 0.1265 µM) was 1.12. For the same compound, the relative viability (EMC-BAC-2; first compound 0.4 µM) was 1.23, the relative viability (EMC-BAC-2; first compound 1.265 µM) was 1.15 and the relative viability (EMC-BAC-2; first compound 4 µM) was 1.14. The relative viability (HARA; first compound 0.04 µM) was 1.08, the relative viability (HARA; first compound 0.1265 µM) was 1.03 and the relative viability (HARA; first compound 0.4 µM) was 1.18. For the same compound, the relative viability (HARA; first compound 1.265 µM) was 1.11, the relative viability (HARA; first compound 4 µM) was 1.13 and the relative viability (NCI-H1975; first compound 0.04 µM) was 1.09. It also gave a relative viability (NCI-H1975; first compound 0.1265 µM) of 1, a relative viability (NCI-H1975; first compound 0.4 µM) of 1.17 and a relative viability (NCI-H1975; first compound 1.265 µM) of 0.945. It also gave a relative viability (NCI-H1975; first compound 4 µM) of 0.815, a relative viability (NCI-H1395; first compound 0.04 µM) of 1.17 and a relative viability (NCI-H1395; first compound 0.1265 µM) of 1.07. The relative viability (NCI-H1395; first compound 0.4 µM) was 1.37, the relative viability (NCI-H1395; first compound 1.265 µM) was 1.07 and the relative viability (NCI-H1395; first compound 4 µM) was 1.08. For the same compound, the relative viability (SW 1573; first compound 0.04 µM) was 0.938, the relative viability (SW 1573; first compound 0.1265 µM) was 1.03 and the relative viability (SW 1573; first compound 0.4 µM) was 1.02. The relative viability (SW 1573; first compound 1.265 µM) was 0.872 and the relative viability (SW 1573; first compound 4 µM) was 0.969.
